From ChEMBL document CHEMBL1141099, “Discovery of N-(2,6-dimethylphenyl)-substituted semicarbazones as anticonvulsants: hybrid pharmacophore-based design” (2005)

Columns and labels:
Rattus norvegicus [1] = organism: Rattus norvegicus; test: Ex vitro percentage inhibition activity against GABA-T enzyme at a concentration of 1.25 uM after 6 h; format: functional
[2] = target: 4-aminobutyrate aminotransferase, mitochondrial (Rattus norvegicus) (UniProt P50554); test: In vitro percentage inhibition activity against GABA-T enzyme at a concentration of 0.625 uM after 4.5 h
Mus musculus [3] = test: Minimum dose required for anticonvulsant activity when given i.p., at 0.5 hr in mice upon subcutaneous strychnine seizure; format: functional
Rattus norvegicus [4] = test: Number of rats protected at a dose of 30 mg/Kg when given oral at 0.5 hr upon maximal electroshock seizure; Total number of rats = 4; format: functional
Rattus norvegicus [5] = test: Number of rats protected at a dose of 30 mg/Kg when given oral at 0.25 hr upon maximal electroshock seizure; Total number of rats = 4; format: functional
Mus musculus [6] = test: Minimum dose required for anticonvulsant activity when given i.p., at 4 hr in mice upon maximal electroshock seizure; format: functional
Rattus norvegicus [7] = test: Effect on GABA level in rat whole brain concentration after 2 hr post-treatment at a dose of 100 mg/Kg when given i.p.; Control 48.4; format: functional
Rattus norvegicus [8] = test: Effect on GABA level in rat whole brain concentration after 7 days post-treatment at a dose of 30 mg/Kg when given orally; Control 50.5; format: functional
Rattus norvegicus [9] = organism: Rattus norvegicus; test: Protective index between effective dose and toxic dose in rat; format: functional
Rattus norvegicus [10] = organism: Rattus norvegicus; test: Ex vitro percentage inhibition activity against GABA-T enzyme at a concentration of 1.25 uM after 4.5 h; format: functional
Rattus norvegicus [11] = organism: Rattus norvegicus; test: Ex vitro percentage inhibition activity against GABA-T enzyme at a concentration of 1.25 uM after 3 h; format: functional
[12] = target: 4-aminobutyrate aminotransferase, mitochondrial (Rattus norvegicus) (UniProt P50554); test: In vitro percentage inhibition activity against GABA-T enzyme at a concentration of 0.625 uM after 3 h
Rattus norvegicus [13] = test: Number of rats protected at a dose of 30 mg/Kg when given oral at 1 hr upon maximal electroshock seizure; Total number of rats = 4; format: functional
Rattus norvegicus [14] = test: Number of rats protected at a dose of 30 mg/Kg when given oral at 4 hr upon maximal electroshock seizure; Total number of rats = 4; format: functional
Mus musculus [15] = test: Post treatment activity score for CNS study using a actophotometer at a dose of 100 mg/Kg after 0.5 hr when given i.p., in mice (No. of animals 6); Control (24h before) 281
Rattus norvegicus [16] = test: Toxic dose observed for anticonvulsant activity when given i.p., at 0.5 hr in rat upon neurotoxicity seizure; format: functional; conditions: ip
Mus musculus [17] = test: Minimum dose required for anticonvulsant activity when given i.p., at 0.5 hr in mice upon maximal electroshock seizure; format: functional
Rattus norvegicus [18] = test: Effective dose required for anticonvulsant activity when given i.p., at 0.5 hr in rat upon maximal electroshock seizure; format: functional; conditions: ip
[19] = target: 4-aminobutyrate aminotransferase, mitochondrial (Rattus norvegicus) (UniProt P50554); test: In vitro percentage inhibition activity against GABA-T enzyme at a concentration of 0.625 uM after 6 h
Rattus norvegicus [20] = test: Number of rats protected at a dose of 30 mg/Kg when given oral at 2 hr upon maximal electroshock seizure; Total number of rats = 4; format: functional
Mus musculus [21] = test: Minimum dose required for anticonvulsant activity when given i.p., at 0.5 hr in mice upon subcutaneous pentylenetetrazole seizure; format: functional
Mus musculus [22] = test: Minimum dose required for anticonvulsant activity when given i.p., at 0.5 hr in mice upon neurotoxicity seizure using rotarod test; format: functional
Mus musculus [23] = test: Mean sleeping time evaluated for CNS study using the pentobarbital-induced narcosis model at a dose of 100 mg/Kg when given i.p., in mice (No. of animals 6)
Mus musculus [24] = test: Post treatment activity score for CNS study using a actophotometer at a dose of 100 mg/Kg after 1 hr when given i.p., in mice (No. of animals 6); Control (24h before) 281
Mus musculus [25] = test: Post treatment immobility time for CNS study using Porsolt's swimpool test at a dose of 100 mg/Kg after 1 hr when given i.p., in mice (No. of animals 6); Control (24h before) 132
Rattus norvegicus [26] = test: Seizure score after administration in rat 2 at dose 100 mg/Kg when given i.p., upon preliminary hippocampal-kindling screen; format: functional, Hippocampus
Mus musculus [27] = test: Post treatment activity score for CNS study using a actophotometer at a dose of 100 mg/Kg after 1 hr when given i.p., in mice (No. of animals 6); Control (24h before) 202
Mus musculus [28] = test: Post treatment activity score for CNS study using a actophotometer at a dose of 100 mg/Kg after 0.5 hr when given i.p., in mice (No. of animals 6); Control (24h before) 202
Rattus norvegicus [29] = test: Toxic dose observed for anticonvulsant activity when given i.p., at 1 h in rat upon neurotoxicity seizure; format: functional; conditions: ip
Rattus norvegicus [30] = test: Seizure score after administration in rat 1 at dose 100 mg/Kg when given i.p., upon preliminary hippocampal-kindling screen; format: functional, Hippocampus
Mus musculus [31] = test: Minimum dose required for anticonvulsant activity when given i.p., at 2 hr in mice upon subcutaneous strychnine seizure; format: functional
Mus musculus [32] = test: Post treatment immobility time for CNS study using Porsolt's swimpool test at a dose of 100 mg/Kg after 1 hr when given i.p., in mice (No. of animals 6); Control (24h before) 173
Rattus norvegicus [33] = test: After discharge duration time when after administered in rat 2 at dose 100 mg/Kg when given i.p., upon preliminary hippocampal-kindling screen; format: functional, Hippocampus
Rattus norvegicus [34] = test: After discharge duration time when before administered in rat 2 at dose 100 mg/Kg when given i.p., upon preliminary hippocampal-kindling screen; Prodrug time 11-39 s; format: functional, Hippocampus
Rattus norvegicus [35] = test: Seizure score before administration in rat 2 at dose 100 mg/Kg when given i.p., upon preliminary hippocampal-kindling screen; […]; format: functional, Hippocampus
Rattus norvegicus [36] = organism: Rattus norvegicus; test: Ex vitro percentage inhibition activity against GABA-T enzyme at a concentration of 5 uM after 4.5 h; format: functional
Rattus norvegicus [37] = test: After discharge duration time when after administered in rat 1 at dose 100 mg/Kg when given i.p., upon preliminary hippocampal-kindling screen; format: functional, Hippocampus
Rattus norvegicus [38] = test: Seizure score before administration in rat 1 at dose 100 mg/Kg when given i.p., upon preliminary hippocampal-kindling screen; format: functional, Hippocampus
Rattus norvegicus [39] = test: After discharge duration time when before administered in rat 1 at dose 100 mg/Kg when given i.p., upon preliminary hippocampal-kindling screen; Prodrug time 26-42 s; format: functional, Hippocampus
Rattus norvegicus [40] = test: Effective dose required for anticonvulsant activity when given i.p., at 1 hr in rat upon maximal electroshock seizure; format: functional; conditions: ip
Rattus norvegicus [41] = organism: Rattus norvegicus; test: Ex vitro percentage inhibition activity against GABA-T enzyme at a concentration of 5 uM after 6 h; format: functional
Rattus norvegicus [42] = organism: Rattus norvegicus; test: Ex vitro percentage inhibition activity against GABA-T enzyme at a concentration of 5 uM after 3 h; format: functional

Chain of 4-aminobutyrate aminotransferase, mitochondrial (Rattus norvegicus) (P50554 28-500 limits assumed): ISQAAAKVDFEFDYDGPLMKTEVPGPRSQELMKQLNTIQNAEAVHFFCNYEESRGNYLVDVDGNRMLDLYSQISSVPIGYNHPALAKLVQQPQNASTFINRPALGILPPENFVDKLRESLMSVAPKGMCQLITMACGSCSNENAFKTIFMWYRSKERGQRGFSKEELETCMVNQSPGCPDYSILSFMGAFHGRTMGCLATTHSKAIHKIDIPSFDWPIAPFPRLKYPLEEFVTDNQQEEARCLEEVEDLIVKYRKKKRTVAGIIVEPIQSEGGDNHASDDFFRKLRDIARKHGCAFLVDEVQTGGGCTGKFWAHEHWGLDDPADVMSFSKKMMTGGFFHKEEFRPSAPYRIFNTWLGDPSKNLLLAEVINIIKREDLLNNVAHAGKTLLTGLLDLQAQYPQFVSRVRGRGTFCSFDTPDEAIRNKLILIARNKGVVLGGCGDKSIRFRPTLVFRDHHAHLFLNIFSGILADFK

SMILES | inhibition [2] | STY seizure (Mus musculus [3]) | Activity (Rattus norvegicus [4]) | Activity (Rattus norvegicus [5]) | MES (Mus musculus [6]) | Activity (Rattus norvegicus [7]) | Activity (Rattus norvegicus [8]) | PI (Rattus norvegicus [9]) | inhibition [12] | Activity (Rattus norvegicus [13]) | Activity (Rattus norvegicus [14]) | MES (Mus musculus [17]) | inhibition [19] | Activity (Rattus norvegicus [20]) | PTZ seizure (Mus musculus [21]) | NT (Mus musculus [22]) | Time (Mus musculus [23]) | other results
Cc1cccc(C)c1NC(=O)N/N=C/c1ccccc1[N+](=O)[O-] | 0% | 100 mg/kg | 2 | 2 | 300 mg/kg | 84.7 ug/100mg of tissue | 81.6 ug/100mg of tissue | >4.3 | 53% | 2 | 2 | 300 mg/kg | 40% | 2 | 300 mg/kg | 300 mg/kg | 141 min | Inhibition (Rattus norvegicus [1]): 23%; Inhibition (Rattus norvegicus [10]): 98%; Inhibition (Rattus norvegicus [11]): 0%; Activity (Mus musculus [15]): 177; TD50 (Rattus norvegicus [16]): > 100 mg/kg; ED50 (Rattus norvegicus [18]): 23.2 mg/kg; Activity (Mus musculus [24]): 177; Activity (Mus musculus [25]): 190
Cc1cccc(C)c1NC(=O)N/N=C/c1cccc([N+](=O)[O-])c1 | 0% | 30 mg/kg | 1 | 1 | 300 mg/kg | 79.8 ug/100mg of tissue | 87.9 ug/100mg of tissue | >4 | 88% | 3 | 3 | 100 mg/kg | 0% | 1 | 300 mg/kg | 300 mg/kg | 147 min | Score (Rattus norvegicus [26]): 5; Activity (Mus musculus [27]): 131; Activity (Mus musculus [28]): 129; TD50 (Rattus norvegicus [29]): > 120 mg/kg; Score (Rattus norvegicus [30]): 1; STY seizure (Mus musculus [31]): 100 mg/kg; Activity (Mus musculus [32]): 231; ADD (Rattus norvegicus [33]): 59 s; ADD (Rattus norvegicus [34]): 39 s; Score (Rattus norvegicus [35]): 4; Inhibition (Rattus norvegicus [36]): 0%; ADD (Rattus norvegicus [37]): 52 s; Score (Rattus norvegicus [38]): 5; ADD (Rattus norvegicus [39]): 42 s; ED50 (Rattus norvegicus [40]): 29.7 mg/kg; Inhibition (Rattus norvegicus [41]): 0%; Inhibition (Rattus norvegicus [42]): 0%
